Patent publication US9145351B2, “Azole derivatives, methods for producing the same, intermediate thereof, agro-horticultural agents” (KUREHA CORPORATION, priority 2009, dated 2015)
≈ marks a conversion by molar mass, not a printed value.

Tests used:
Puccinia recondita [1] = test: Efficacy test against wheat brown rust, 2 mg/L (Experimental Example 8); assay type: in vivo; details: sprayed at 1,000 L/ha, concentration printed 0.02 mg/L, 9 to 14 days after inoculation
Method: Onto a wheat plant (variety: […] The sprayed leaves were air-dried, and inoculated with spore suspension of Puccinia recondita (adjusted at 200 spores/vision, […] was added at 60 ppm) by spraying, and kept at 25 degrees C. and a high humidity for 48 hours. Thereafter, the plant was kept in a greenhouse. Nine to 14 days after inoculation, the wheat brown rust lesion degree was investigated, and the protective value was calculated by the following equation. Protective value (%)=(1-lesion degree in sprayed plot/lesion degree in unsprayed plot)×100

Septoria tritici [2] = test: Assay for fungicidal effect on Septoria tritici, plate medium 0.02 mg/L (Experimental Example 7); assay type: cell-based
Text: In this Experimental Example, the fungicidal effects of the inventive compounds on a phytopathogenic fungi, Septoria tritici were examined and compared to the Comparative Compound (3) described in Patent Literature 1 (JPA01-93574) by the methods described below. […] The subject microorganism previously cultured on a plate medium was cut out using a cork borer whose diameter was 4 mm, and inoculated to the test compound-containing plate medium described above. […] The growth degree of the microorganism on the test compound-containing plate medium thus observed was compared with the growth degree of the microorganism in the untreated group, and % mycelial growth inhibition was calculated by the following equation. R=100(dc−dt)/dc wherein R=% mycelial extension inhibition, dc=flora diameter in untreated plate, dt=flora diameter in treated plate. The results obtained as described above were evaluated as one of the 5 grades according to the following criteria. <Growth Inhibition Grade> […]

Septoria tritici [3] = test: Microplate test of biocidal effect on wheat Septoria blotch (Experimental Example 4); assay type: cell-based; details: Zymoseptoria tritici, 240 h; % mycelium growth inhibition, absorbance 550 nm, 20 degrees C. for about 10 days; read-out: activity level (EC80)
Method: A spore suspension of wheat Septoria blotch (Septoria tritici) (spore concentration: 1×10^6 cells/ml) was prepared, and subjected to 100-fold dilution with a PD medium. A flat 96-well microplate was provided and 1 microliter of the test compound solution formed by dissolution in dimethyl sulfoxide (DMSO) at a concentration 100 times the test concentration was dispensed to the microplate, and then 100 microliter of the medium containing the spore was added and stirred thoroughly. […] R=100×(dc−dt)/dc: R: % mycelium growth inhibition dc: Absorbance of non-treatment zone dt: Absorbance of treatment zone

Puccinia recondita [4] = test: Efficacy test against wheat brown rust, 1 mg/L (Experimental Example 10); assay type: in vivo; details: 1 g/ha (1 mg/L sprayed at 1,000 L/ha)
Septoria tritici [5] = test: Assay for fungicidal effect on Septoria tritici, plate medium 1.25 mg/L (Experimental Example 9); assay type: cell-based; details: Zymoseptoria tritici, read-out: growth inhibition grade
Method: Each inventive compound was dissolved in 2 ml of dimethyl sulfoxide. 0.6 ml of this solution was added to 60 nil of a PDA medium (potato dextrose agar medium) at about 60 degrees C., which was mixed thoroughly in a 100-ml conical flask, and poured into a dish, where it was solidified, thereby obtaining a plate medium containing the inventive compound at 50 mg/L and 5 mg/L. On the other hand, a subject microorganism previously cultured on a plate medium was cut out using a cork borer whose diameter was 4 mm, and inoculated to the test compound-containing plate medium described above. […] The growth degree of the microorganism on the test compound-containing plate medium thus observed was compared with the growth degree of the microorganism in the untreated group, and % mycelial growth inhibition was calculated by the following equation. R=100(dc−dt)/dc wherein R=% mycelial extension inhibition, dc=flora diameter in untreated plate, dt=flora diameter in treated plate. The results obtained as described above were evaluated as one of the 5 grades according to the following criteria. […] In this Experimental Example, the fungicidal effects of the inventive compounds on Septoria tritici were examined by the methods described in the Experimental Example 5. In this Experimental Example, the inventive compounds were diluted at 1.25 mg/L.

Compound | degree (wheat brown rust lesion degree) (Puccinia recondita [1]) | grade (growth inhibition grade) (Septoria tritici [2]) | EC80 (Septoria tritici [3]) | lesion degree (Puccinia recondita [4]) | inhibition at 1.25 µg/mL (Septoria tritici [5])
CC1(C)CC[C@@H](Cc2ccc(F)cc2)[C@]1(O)Cn1cncn1 (racemic) [Compound (3)] | 3 (10% or higher and less than 30%) | 2 (% Mycerial growth inhibition of less than 40 to 20% or higher) | – | – | –
CC1(C)CC[C@H](Cc2ccc(Cl)cc2)[C@@]1(O)Cn1cncn1 (racemic) [comparative compound (I), (1RS,5SR)-5-(4-chlorobenzyl)-2,2-dimethyl-1-(1H-1,2,4-triazol-1-ylmethyl)cyclopentanol, reference compound] | – | – | 0.4 µg/mL (≈ 1.25 µM) | 3 (10% or higher and less than 30%) | 40 to 60%
